Data from patent US9433214B2, “Active compounds combination containing fluopyram Bacillus and biologically control agent” (BAYER INTELLECTUAL PROPERTY GMBH, priority 2012, dated 2016).

System: Meloidogyne incognita
Assay: Meloidogyne incognita test (MELGIN): gall formation on salad seedlings in sand
Type: in vivo
Conditions: 504 h, eggs and larvae of Meloidogyne incognita, salad seeds in sand, 100% = no galls, read-out: Mortality in % after 21 d
Method: Meloidogyne incognita—Test (MELGIN)
Solvent: 125.0 parts by weight of acetone
To produce a suitable preparation of active compound, 1 part by weight of active compound is mixed with the stated amount of solvent, and the concentrate is diluted with water to the desired concentration. The preparation of the bacteria, fungi or yeast products contains 10^9-10^10 spores/g or cells/g. To produce a suitable preparation of a biological suspension the cells or spores are diluted with emulsifier-containing water to the desired concentration.
Vessels are filled with sand, a solution of the active ingredient, a suspension containing eggs and larvae of Meloidogyne incognita and salad seeds. The salad seeds germinate and the seedlings grow. Galls develop in the roots.
After the specified period of time the nematicidal activity is determined on the basis of the percentage of gall formation. When Meloidogyne incognita attacks roots of plants, it deforms the normal root cells and establishes giant cells and consequently the attacked roots form galls. 100% means that no galls were found; 0% means that the number of galls found on the roots of the treated plants was equal to that in untreated control plants.

In the case of O=C(NCCc1ncc(C(F)(F)F)cc1Cl)c1ccccc1C(F)(F)F [Fluopyram], the gall reduction efficacy at 0.0005 ppm is reported as 0%.
